Experimental data from US5202130A, “Suppression of eczematous dermatitis by calcium transport inhibition” (The Johns Hopkins University, priority 1989, dated 1993).
Where two headings read alike, the source gives them in different places.

Assays:
[1] = system: contact allergic dermatitis; assay: Patch tests in seven patients with known contact allergic dermatitis, overall; format: in vivo, human (patients)
Protocol: Seven patients with known contact allergic dermatitis were recruited. One had hypersensitivity to nickel, four of these individuals had allergies against formaldehyde, and two had known allergies against chromium sulfate. Three patch test were applied in each individual. Patient number 1 was exposed to nickel sulfate (5% weight per volume) in hydrophilic ointment base USP. "Results" refers to the amount of erythema in the patch test sites at 48 hours, judged on a scale of 0-3+, where 3+ represents maximum erythema and inflammation.

[2] = format: in vivo, human (patients with atopic dermatitis)
Protocol: To date, eight patterns with endogenous eczema (atopic dermatitis) have been treated with topical lanthanides. In three individuals, atopic dermatitis affected the majority of the body surface. These three patients were treated with a single total body application of lanthanum chloride (5% in hydrophilic ointment base). Blood levels of lanthanum were measured by atomic absorption spectroscopy, over a period of 1/2 to 24 hours after the single application.

formaldehyde allergy = assay: Prevention of inflammatory reaction by topical La^3+, patch test with formaldehyde; format: in vivo, human (patient); conditions: 2% in hydrophilic ointment base, read at 72 hours
Protocol: In this example, a patient with known allergy against for formaldehyde was challenged with formaldehyde in the presence of lanthanum chloride. Lanthanum chloride was used at a 2% concentration (2 g/100 ml) in hydrophilic ointment base, USP, and the lanthanum was incorporated in the ointment at the time of exposure. The results of the patch test were read at 72 hours, and a photograph was taken. […] There was a very slight decrease of inflammation due to the presence of the ointment base itself. This slight decrease as a result of the use the emollient only is a well known phenomenon. […] The effect of the lanthanum is clearly much greater than that of the ointment base alone.

[3] = system: contact sensitization against DNCB; assay: Effect of topically administered La^3+ on sensitization against DNCB (ear swelling); format: in vivo, BALB/c mice
Protocol: Mice were treated with 50 microliters of 10% La^3+ chloride mixture (500 mg La^3+ chloride dissolved in 5 ml of 95% ethanol:glycerin [4:1 ratio]) applied for five consecutive days to the shaved back surface. Control animals were treated with the ethanol:glycerin vehicle only. On days 6 and 7, 25 microliters of 1.0% DNCB solution was applied to the shaved dorsal back surface. In mice pretreated with topical La^3+, DNCB was applied only to the shaved dorsal skin that had previously been treated with La^3+.

[4] = system: delayed hypersensitivity to ovalbumin; assay: Antigenic specificity of the suppressor cells (ovalbumin response of recipients); format: in vivo, mice of the strain AB (H-2^k)
Protocol: (§1) Inbred mice of the strain AB (H-2^k) reared in the breeding colony of the Humboldt University Berlin were used. The mice were fed with water and standard pellets ad libitum. During all procedures (sensitization, challenge, measurement) the animals were anesthetized by an intraperitoneal injection of hexobarbital sodium salt. The number of animals per experimental group (n) is presented.
(§2) 10 g LaCl3 ×7H2 O (Laborchemie Apolda, G.D.R.) was dissolved in 10 ml water and incorporated into unguentum alcoholum lanae aquosum. The previously shaved sensitization site on the abdominal skin of the mice was treated at the days numbered -1, 0, and +1 with this ointment. At the days 0 and +1, when contact sensitization with DNFB was performed, the ointment was applied on hour after sensitization, so that the penetration of the DNFB was not influenced by the ointment.
The spleens from mice treated with lanthanum and control animals were removed and homogenized by gently pressing the tissue through a steel mesh. […]
Other groups of mice were sensitized by injection 50 microliters of ovalbumin (Serva, Heidelberg, F.R.G.) emulsified in 20 microliters of complete Freund's adjuvant (Difco laboratories, Detroit, U.S.A.) subcutaneously into the base of the tail. […] One day later foodpad swelling was measured. […]

[5] = system: suppressor cells (CD4 or CD8 T cell determinants); assay: Phenotype of the suppressor cells, spleen cells treated in vitro with mab and complement before transfer; format: in vivo, mice of the strain AB (H-2^k)
Protocol: The spleens from mice treated with lanthanum and control animals were removed and homogenized by gently pressing the tissue through a steel mesh. […] Thereafter the cells were washed 2 times and incubated for 20 minutes at 4° C. with a rat anti-mouse Ig mab (ATCC, Rockville, USA). The cells were washed 2 times and incubated for 30 minutes at 37° C. with normal rabbit serum, diluted 1:5 as a source of complement. The serum used was not toxic to the cells. Thereafter the cells were washed 2 times and 10^8 viable cells were injected intravenously into native syngeneic mice.
The non-parametric Mann-Whitney test was used.
To investigate the phenotype of this suppressor cell, spleen cells were harvested from mice which were previously sensitized with DNFB on LaCl3 pretreated skin. […]

DNFB contact sensitivity = assay: Transfer of hyporesponsiveness to DNFB by spleen cells of mice sensitized on LaCl3 treated skin; format: in vivo, mice of the strain AB (H-2^k)
From the text: as §1
The mice were anesthesized in an area of 2.0×2.0 cm on their abdomen, abdominal skin was shaved with a blade, and a 20 microliters of a 0.5% solution of 2,4-dinitro-1-fluorobenzene (DNFB) (Serva, Heidelberg, F.R.G.) in acetone were applied to this site. This procedure was repeated one day later.
The challenge reaction was induced 5 days after the first sensitization by an application of 0.2% DNFB in acetone on the dorsal surfaces of both ears. The ear thickness was measured before and 24 hours after challenge using an engineers micrometer (Peacock, Japan).
as §2
The spleens from mice treated with lanthanum and control animals were removed and homogenized by gently pressing the tissue through a steel mesh. The cell were suspended in RPMI 1640 medium (SIFIN, Berlin, G.D.R.) and were washed three times by centrifugation at 300 g for 10 minutes and resuspended. The treatment with monoclonal antibodies (mab) was performed by incubating the cells for 20 minutes with the L3T4 mab (clone GK 1.5, ATCC, Rockville, USA) or the anti-Lyt 2 mab (clone 53-6, ATCC, Rockville, USA) in a final dilution of 1:50. Thereafter the cells were washed 2 times and incubated for 20 minutes at 4° C. with a rat anti-mouse Ig mab (ATCC, Rockville, USA). […]

[6] = system: atopic dermatitis affecting the hands; assay: Treatment of atopic dermatitis affecting the hands with lanthanum chloride ointment; format: in vivo, human (patients); conditions: 5% ointment twice daily, 1-3 months; five patients
Protocol: Five patients with atopic dermatitis affecting the hands were treated with topical lanthanides. In this protocol individuals were dispensed a 5% lanthanum chloride ointment and were instructed to use a thin film on the hands twice daily immediately before work and immediately upon returning home from work. These individuals did so for a period of 1-3 months.

In the case of `[Cl][La]([Cl])[Cl]` [lanthanum chloride, Lanthanum chloride], the “suppression of inflammation in all individuals” value ([1]; 5% lanthanum chloride at the time of exposure to known allergen) is reported as “significant suppression of inflammation”, the “suppression of inflammation upon challenge” value ([1]; seven patients, known sensitizing agents) is reported as “dose dependent effect in suppression of inflammation” and the “penetration of the stratum corneum of the epidermis” value [2] is reported as “does penetrate the stratum corneum of the epidermis”. For the same compound, the “time of peak blood level” value ([2]; human, in vivo, topical or ocular) was “approximately 4 hours”, the “Blood Concentration of La^+ 3” value ([2]; human, in vivo, topical or ocular, 0.5 h) was 4 ± 2.8 ng/mL and the “Blood Concentration of La^+ 3” value ([2]; human, in vivo, topical or ocular, 1 h) was 12.3 ± 2.3 ng/mL. The “Blood Concentration of La^+ 3” value ([2]; human, in vivo, topical or ocular, 2 h) was 12.16 ± 3 ng/mL, the “Blood Concentration of La^+ 3” value ([2]; human, in vivo, topical or ocular, 4 h) was 30.9 ± 2.2 ng/mL and the “Blood Concentration of La^+ 3” value ([2]; human, in vivo, topical or ocular, 12 h) was 14 ± 1.6 ng/mL. For the same compound, the “Blood Concentration of La^+ 3” value ([2]; human, in vivo, topical or ocular, 24 h) was 11 ± 3.6 ng/mL, the “blood level relative to levels known to produce toxicity in animals and humans” value ([2]; in vivo) was “well below those levels known to produce toxicity in animals and humans” and the “inflammation in patch test” value (formaldehyde allergy) was “almost totally abolished”. The ear swelling ([3]; 24 h post-challenge, control 0.12±0.02 mm, p=0.028) was 0.05±0.02 mm, the “decrease in ear thickness 24 h post-challenge” value ([3]; FIG. 2, topical, vs. non-La-treated animals, p<0.01, challenge 25 μl of 0.25% DNCB) was 58% and the “difference in ear swelling between pretreated and control animals” value ([3]; statement follows negative control (challenged without prior sensitization) 0.03±0.01 mm) was “not statistically significant”. For the same compound, the “reduction in the contact hypersensitivity response” value ([3]; topical, 50 microliters of 10% La^3+ chloride, five days) was 58%, the “footpad swelling response of the recipients to ovalbumin” value ([4]; transferred cells from mice sensitized with DNFB on LaCl3-treated skin) was “not affected” and the “Ear thickness (footpad swelling per footnote)” value ([4]; ± SD, DNFB sensitization on LaCl3 treated skin, recipients immunized with ovalbumin, n 8, NS, no cell transfer .68 ± .12) was “.68 ± .09 10^-2 mm”. For the same compound, the “suppressor T cell population induced” value ([5]; DNFB-sensitized mice) was “a splenic CD4-CD8+ suppressor T cell population is induced”, the “% Suppression” value ([5]; spleen cells of LaCl3-treated, DNFB-sensitized donors, in vitro treatment as labelled (LaCl3 line = no treatment of cells), n 5) was 100% and the Ear thickness ([5]; ± SD, spleen cells of LaCl3-treated, DNFB-sensitized donors, in vitro treatment as labelled (LaCl3 line = no treatment of cells), no cell transfer 50 ± 4.2, n 5) was 28 ± 2.1 10^-2 mm. For the same compound, the “% Suppression” value (DNFB contact sensitivity; recipients of cells from donors DNFB-sensitized on LaCl3 treated skin, n 7) was 88%, the “transfer of hyporesponsiveness to DNFB by spleen cells” value (DNFB contact sensitivity; topical LaCl3 treatment of donors) was “transferred the hyporesponsiveness to DNFB to native syngeneic recipients” and the Ear thickness (DNFB contact sensitivity; ± SD, recipients of cells from donors DNFB-sensitized on LaCl3 treated skin, n 7, p 0.01, no cell transfer 46 ± 4.8) was 29 ± 2.4 10^-2 mm. The “fissuring, oozing, and puritis” value [6] was “decrease” and the hand dermatitis [6] was “significant improvement”.
